Measurements taken from PubChem BioAssay AID248 (DTP/NCI, 2004).
“And” between values parts separate entries of the source, which are not always exact repeats. Equal entries are not always repeated. Toxic doses and inconclusive results are not listed. No stated cut-off is given here; in the data, active means T/C of 150% or more; inactive means T/C below 125%.

Test system: L1210 leukemia ip in BDF1 mice, survival T/C
Test: NCI In Vivo Anticancer Drug Screen. Data for tumor model L1210 Leukemia (intraperitoneal) in B6D2F1 (BDF1) mice
Conditions: endpoint: mean survival time, higher = longer survival
Procedure, shortened: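 Tumor was transplanted into mice, which were then dosed with test compound or vehicle alone. Survival was recorded for each group, and the treated figure was expressed relative to the control figure.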

[1] = dose: 100.0 mg/kg/injection, schedule: Q04DX002 (ip), vehicle: Klucel (hydroxypropylcellulose) (HPC)
[2] = dose: 200.0 mg/kg/injection, schedule: Q04DX002 (ip), vehicle: Klucel (hydroxypropylcellulose) (HPC)
[3] = dose: 400.0 mg/kg/injection, schedule: Q04DX002 (ip), vehicle: Klucel (hydroxypropylcellulose) (HPC)
[4] = dose: 100.0 mg/kg/injection, schedule: Q01DX001 (ip), vehicle: carboxymethylcellulose (CMC)
[5] = dose: 200.0 mg/kg/injection, schedule: Q01DX001 (ip), vehicle: carboxymethylcellulose (CMC)
[6] = dose: 400.0 mg/kg/injection, schedule: Q01DX001 (ip), vehicle: carboxymethylcellulose (CMC)
[7] = dose: 25.0 mg/kg/injection, schedule: Q01DX009 (ip), vehicle: saline with Tween-80
[8] = dose: 50.0 mg/kg/injection, schedule: Q01DX009 (ip), vehicle: saline with Tween-80
[9] = dose: 100.0 mg/kg/injection, schedule: Q01DX009 (ip), vehicle: Klucel (hydroxypropylcellulose) (HPC)
[10] = dose: 100.0 mg/kg/injection, schedule: Q04DX003 (ip), vehicle: Klucel (hydroxypropylcellulose) (HPC)
[11] = dose: 200.0 mg/kg/injection, schedule: Q04DX003 (ip), vehicle: Klucel (hydroxypropylcellulose) (HPC)
[12] = dose: 400.0 mg/kg/injection, schedule: Q04DX003 (ip), vehicle: Klucel (hydroxypropylcellulose) (HPC)

Measured: T/C

Cc1ccc(NC(=O)Nc2cccc(C(F)(F)F)c2)cc1NC(=O)Nc1cccc(C(F)(F)F)c1
inactive: dose: 100.0 mg/kg/injection, schedule: Q04DX003 (ip), vehicle: saline with Tween-80 93 % of control | dose: 200.0 mg/kg/injection, schedule: Q01DX009 (ip), vehicle: saline with Tween-80 92 % of control | dose: 400.0 mg/kg/injection, schedule: Q01DX009 (ip), vehicle: saline with Tween-80 103 % of control | dose: 400.0 mg/kg/injection, schedule: Q04DX003 (ip), vehicle: saline with Tween-80 88 % of control

CC(CCl)OC(=O)CCO (stereo not drawn)
inactive: dose: 55.0 mg/kg/injection, schedule: Q01DX Z (ip), vehicle: methylcellulose (MC) 104 % of control | dose: 83.0 mg/kg/injection, schedule: Q01DX Z (ip), vehicle: methylcellulose (MC) 100 % of control | dose: 125.0 mg/kg/injection, schedule: Q01DX Z (ip), vehicle: methylcellulose (MC) 89 % of control

O=C(O)CCC(NC(=O)/C=C/c1ccc([N+](=O)[O-])cc1)C(=O)O (stereo not drawn)
inactive: [1] 107 % of control | [2] 88 % of control | [3] 91 % of control

CCOC(=O)CC(C(C)=O)C(=O)OCC (stereo not drawn)
inactive: dose: 50.0 mg/kg/injection, schedule: Q01DX001 (ip), vehicle: carboxymethylcellulose (CMC) 100 % of control | [4] 100 % of control | [5] 94 % of control | [6] 100 % of control

CN1C2CCC1CC(OC(=O)C(CO)c1ccccc1)C2 (stereo not drawn)
inactive: dose: 31.25 mg/kg/injection, schedule: Q01DX Z (ip), vehicle: saline 100 % of control | dose: 62.5 mg/kg/injection, schedule: Q01DX Z (ip), vehicle: saline 102 % of control | dose: 125.0 mg/kg/injection, schedule: Q01DX Z (ip), vehicle: saline 98 % of control

[Ni+2].[O-]c1ccccc1C=Nc1ccccc1N=Cc1ccccc1[O-]
inactive: dose: 12.5 mg/kg/injection, schedule: Q01DX009 (ip), vehicle: saline with Tween-80 93 % of control | [7] 93 % of control | [8] 93 % of control

COc1ccc(C2CCCCCC2OS(C)(=O)=O)c(OC)c1OC (stereo not drawn)
inactive: [4] 108 % of control | [5] 119 % of control

O=C1c2ccccc2C(=O)N1c1c2ccccc2cc2ccccc12
inactive: dose: 100.0 mg/kg/injection, schedule: Q04DX003 (ip), vehicle: saline sonified 98 % of control | dose: 200.0 mg/kg/injection, schedule: Q04DX003 (ip), vehicle: saline sonified 95 % of control | dose: 400.0 mg/kg/injection, schedule: Q04DX003 (ip), vehicle: saline sonified 95 % of control

c1ccc(-c2cc(-c3ccccc3)[o+]c(-c3ccccc3)c2)cc1
inactive: [1] 93 % of control | [2] 96 % of control | [3] 90 % of control

O=C1OC(c2ccccc2)=NC1c1ccccc1 (stereo not drawn)
inactive: dose: 100.0 mg/kg/injection, schedule: Q01DX009 (ip), vehicle: saline 95 % of control | dose: 100.0 mg/kg/injection, schedule: Q04DX003 (ip), vehicle: carboxymethylcellulose (CMC) 101 % of control | dose: 200.0 mg/kg/injection, schedule: Q01DX009 (ip), vehicle: saline 97 % of control | dose: 200.0 mg/kg/injection, schedule: Q04DX003 (ip), vehicle: carboxymethylcellulose (CMC) 95 % of control | dose: 400.0 mg/kg/injection, schedule: Q01DX009 (ip), vehicle: saline 97 % of control | dose: 400.0 mg/kg/injection, schedule: Q04DX003 (ip), vehicle: carboxymethylcellulose (CMC) 97 % of control

CNC(=O)NNC(=O)CNC(=O)Nc1cccc([N+](=O)[O-])c1
inactive: [7] 91 % of control | [8] 94 % of control

O=C(O)C(=O)c1ccc(-c2ccccc2)cc1
inactive: dose: 5.0 mg/kg/injection, schedule: Q01DX Z (ip), vehicle: carboxymethylcellulose (CMC) 102 % of control | dose: 10.0 mg/kg/injection, schedule: Q01DX Z (ip), vehicle: carboxymethylcellulose (CMC) 100 % of control | dose: 20.0 mg/kg/injection, schedule: Q01DX Z (ip), vehicle: carboxymethylcellulose (CMC) 94 % of control | dose: 40.0 mg/kg/injection, schedule: Q01DX Z (ip), vehicle: carboxymethylcellulose (CMC) 100 % of control | dose: 75.0 mg/kg/injection, schedule: Q01DX001 (ip), vehicle: carboxymethylcellulose (CMC) 101 % of control | dose: 150.0 mg/kg/injection, schedule: Q01DX001 (ip), vehicle: carboxymethylcellulose (CMC) 101 % of control

COC(=O)C(c1ccccc1)C1(O)CCN(Cc2ccccc2)CC1 (stereo not drawn)
inactive: dose: 75.0 mg/kg/injection, schedule: Q04DX003 (ip), vehicle: Klucel (hydroxypropylcellulose) (HPC) 98 % of control | dose: 150.0 mg/kg/injection, schedule: Q04DX003 (ip), vehicle: Klucel (hydroxypropylcellulose) (HPC) 101 % of control | dose: 300.0 mg/kg/injection, schedule: Q04DX003 (ip), vehicle: Klucel (hydroxypropylcellulose) (HPC) 90 % of control

OCC1(CO)CC=CCC1
inactive: dose: 25.0 mg/kg/injection, schedule: Q04DX003 (ip), vehicle: saline 95 % of control | dose: 50.0 mg/kg/injection, schedule: Q04DX003 (ip), vehicle: saline 105 % of control | [4] 103 % of control | dose: 100.0 mg/kg/injection, schedule: Q04DX003 (ip), vehicle: saline 94 % of control and 89 % of control | [5] 95 % of control | [6] 103 % of control

CC1(C)CC(=O)C=C(OS(=O)(=O)C(F)(F)F)C1
inactive: dose: 12.5 mg/kg/injection, schedule: Q01DX009 (ip), vehicle: DMSO 110 % of control | dose: 25.0 mg/kg/injection, schedule: Q01DX009 (ip), vehicle: DMSO 101 % of control | dose: 50.0 mg/kg/injection, schedule: Q01DX009 (ip), vehicle: DMSO 103 % of control | dose: 100.0 mg/kg/injection, schedule: Q01DX009 (ip), vehicle: DMSO 94 % of control

CCOC(=S)SCC(=O)CSC(=S)OCC
inactive: dose: 25.0 mg/kg/injection, schedule: Q04DX002 (ip), vehicle: Klucel (hydroxypropylcellulose) (HPC) 103 % of control | dose: 50.0 mg/kg/injection, schedule: Q04DX002 (ip), vehicle: Klucel (hydroxypropylcellulose) (HPC) 97 % of control | [1] 110 % of control

COc1ccc(C=NC2C(O)OC(CO)C(O)C2O)cc1 (stereo not drawn)
inactive: dose: 100.0 mg/kg/injection, schedule: Q01DX001 (ip), vehicle: saline 106 % of control | dose: 200.0 mg/kg/injection, schedule: Q01DX001 (ip), vehicle: saline 87 % of control | dose: 400.0 mg/kg/injection, schedule: Q01DX001 (ip), vehicle: saline 93 % of control

ClC1=C(Cl)C(Cl)(Cl)C(Cl)(Cl)C1(Cl)Cl
inactive: dose: 12.5 mg/kg/injection, schedule: Q01DX009 (ip), vehicle: saline 99 % of control | dose: 25.0 mg/kg/injection, schedule: Q01DX009 (ip), vehicle: Klucel (hydroxypropylcellulose) (HPC) 92 % of control | dose: 25.0 mg/kg/injection, schedule: Q01DX009 (ip), vehicle: saline 95 % of control | dose: 50.0 mg/kg/injection, schedule: Q01DX009 (ip), vehicle: Klucel (hydroxypropylcellulose) (HPC) 96 % of control | dose: 50.0 mg/kg/injection, schedule: Q01DX009 (ip), vehicle: saline 97 % of control | [9] 87 % of control | [10] 104 % of control | [11] 96 % of control | [12] 102 % of control

O=[N+]([O-])c1ccc(Cc2ccccc2)cc1 (tested in a mixture with another compound)
inactive: dose: 100.0 mg/kg/injection, schedule: Q04DX002 (ip), vehicle: saline with Tween-80 101 % of control | dose: 200.0 mg/kg/injection, schedule: Q04DX002 (ip), vehicle: saline with Tween-80 101 % of control | dose: 400.0 mg/kg/injection, schedule: Q04DX002 (ip), vehicle: saline with Tween-80 97 % of control

O=C(O)COc1ccc([N+](=O)[O-])cc1F
inactive: dose: 100.0 mg/kg/injection, schedule: Q04DX002 (ip), vehicle: other 102 % of control | dose: 200.0 mg/kg/injection, schedule: Q04DX002 (ip), vehicle: other 88 % of control | dose: 400.0 mg/kg/injection, schedule: Q04DX002 (ip), vehicle: other 91 % of control

CNC(=O)Nc1ccc(Cl)cc1C
inactive: [9] 98 % of control | [10] 96 % of control | dose: 200.0 mg/kg/injection, schedule: Q01DX009 (ip), vehicle: Klucel (hydroxypropylcellulose) (HPC) 102 % of control | [11] 96 % of control | [12] 106 % of control

CC12CCC(CC1)C2CO (stereo not drawn)
inactive: [8] 105 % of control | dose: 100.0 mg/kg/injection, schedule: Q01DX009 (ip), vehicle: saline with Tween-80 98 % of control
